Earlier results as cited in US11883378B2, “Hydrogel formulations and methods and devices for focal administration of the same” (Pykus Therapeutics, Inc., priority 2021, dated 2024).
Converted amounts (≈) assume the structure as drawn.

Sequence of VEGF (P15692 207-311 limits assumed): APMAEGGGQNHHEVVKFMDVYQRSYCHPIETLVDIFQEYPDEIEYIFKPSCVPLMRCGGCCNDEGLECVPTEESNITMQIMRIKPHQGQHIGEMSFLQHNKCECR

Row | solubility in water | Compound | tolerability of intravitreal injection (VEGF; dose of 1.25 mg) | effective dose in the vitreous (VEGF; maintained by monthly repetitive intravitreal injections)
1 | ~1 µg/mL (≈ 1.24 µM) | C=CC[C@@H]1/C=C(\C)C[C@H](C)C[C@H](OC)[C@H]2O[C@@](O)(C(=O)C(=O)N3CCCC[C@H]3C(=O)O[C@H](/C(C)=C/[C@@H]3CC[C@@H](O)[C@H](OC)C3)[C@H](C)[C@@H](O)CC1=O)[C@H](C)C[C@@H]2OC [Tacrolimus] |  | 
2 |  | Bevacizumab: anti-VEGF monoclonal antibody (large protein) with a molecular weight of ~150 kD | well tolerated | ~1 µg/mL
